In assay [1] the test system is ICR mouse administrated aggregated beta amyloid 1-42. Put plainly: AD acute model experiment - passive avoidance test. It counts as in vivo. On the procedure: For passive avoidance test, male ICR mouse weighing 25 g purchased from Samtaco Co. was bred with five mice per cage and the cage was kept with following condition maintaining the temperature of 22±2° C. and the relative humidity of […] under the regularly controlled light/dark condition with an interval of 12 hours.
Synthetic beta amyloid 1-42 (BACHEM) was dissolved in DMSO in order to be 250 μm solution and diluted with PBS to […] and aggregated at 37° C. for four days (Passive Avoidance test) or six days (Y maze test).
Aggregated beta amyloid 1-42 was administrated into the mice according to the procedure disclosed in the literature (Lausen & Belknap, J. Pharmacol. Methods, 16 pp 355-357, 1986).
[…] beta amyloid 1-42 was administrated into the 2.4 mm depth of bregma region with 50 μl of Hamilton micro-syringe equipped with 26-gauge needle. The behavior tests were divided into Y maze test and PA (passive avoidance) test after the beta amyloid administration. […]
During the first acquisition trial, each mouse was placed in the lighted compartment; as soon as they entered the dark compartment, the door was closed, and they received an electric shock through the grid floor (0.6 Ma, 3 s). […] 24 hours after the training trial, the mice were again placed in the lighted compartment and the time until they re-entered the dark compartment was measured (step-through latency). […]

In assay [2] the test system is HT22 mouse neuronal cell line treated with aggregated beta amyloid 25-35. Put plainly: Inhibition test of beta amyloid toxicity (MTT). Particulars: HT22 cells, 25 μm aggregated beta amyloid 25-35, 18 hours. In kind it is cell-based. On the procedure: To determine the inhibitory activity of the compounds prepared in Examples on beta-amyloid toxicity, following test was performed according to the procedure disclosed in the literature (Gillardon, F. et al., Brain Research, 706(1), pp. 169-172, 1996).
HT22 mouse neuronal cell line was incubated in DMEM (Dulbecco's Modified Eagle's Medium, Gibco-BRL) medium supplemented with 10% FBS (Fetal Bovine Serum, Hyclone) and 1% penicillin/streptomycin (Sigma Co.). Prior to test, HT22 cell was incubated on 96 well plates with a density of 5×10^3 cell/well and further incubated in serum free DMEM medium for 1 hour before the treatment of test sample. Various concentration of compounds prepared in Examples used as a test sample was added thereto and incubated for 1 hour. Aggregated beta amyloid 25-35 (US peptide) was treated thereto to the concentration of 25 μm and incubated for 18 hours to induce cell necrosis. 5 mg/ml of MTT (3-(4,5-dimethyl-2-thiazolyl)-2,5-diphenyl-2H-tetrazolium bromide) solution was added each well with 15 μl/well and the well was incubated for 4 hours. Dissolving buffer solution (10% SDS, 50% dimethyl formamide, pH 4.7) was added to each well with 100 μl/well and reacted for overnight. 18 hours after the reaction, the absorbance of solution was determined by microplate reader (SAFIRE, TECAN) at 570 nm/630 nm wavelength (Gillardon, F. et al., Brain Research, 706(1) pp 169-172, 1996).

Assay [3] addresses T1, beta amyloid 1-42 (Homo sapiens, UniProt P05067).
T1 construct: Synthetic beta amyloid 1-42 (BACHEM); purchased BACHEM; host or cells: synthetic peptide
Put plainly: Inhibition test of beta amyloid aggregation (Thioflavin T fluorescence). It counts as biochemical. Particulars: FIG. 1. The protocol:
Synthetic beta amyloid 1-42 (BACHEM) was dissolved in DMSO in order to 250 μm solution and diluted with PBS into 1/10 on fluorescent black plate to induce aggregation. By comparing with inhibition activity of the tanshinone compounds prepared in Example 1 on beta amyloid aggregation, the test sample showing more than 50% inhibition activity at 10 μg/ml was chosen to use and added to react for 1 hour at room temperature. ThT (Thioflavin T) was diluted with 50 mM glycine buffer solution and the diluted solution was added to each well by 150 μl/well. The absorbance was determined by microplate reader (SAFIRE, TECAN) at 450 nm excitation wavelength/480 nm emission wavelength and the inhibition activity of the test sample on beta amyloid aggregation was transformed into IC50.

Assay [4] deals with beta amyloid plaque. Put plainly: Congo Red staining of beta amyloid plaque in brain sections of transgenic mice. Particulars: FIG. 14. In kind it is in vivo, mouse.
Assay [5] addresses T2, aggregated beta amyloid Ab(1-42) (Homo sapiens, UniProt P05067).
T2 construct: Synthetic beta amyloid, Ab(1-42) [Bachem Cat. No. H1368; H-Asp-Ala-Glu- Phe-Arg-His-Asp-Ser-Gly-Tyr; purchased Bachem H1368; host or cells: synthetic peptide
Put plainly: Inhibition test of beta amyloid aggregation lysis (Thioflavin T fluorescence). It counts as biochemical. Particulars: FIG. 1. On the procedure: Synthetic beta amyloid, Ab(1-42) [Bachem Cat. No. H1368; H-Asp-Ala-Glu- Phe-Arg-His-Asp-Ser-Gly-Tyr-Glu-Val-His-His-Gln-Lys-Leu-Val-Phe-Phe-Ala-Glu- Asp-Val-Gly-Ser-Asn-Lys-Gly-Ala-Ile-Ile-Gly-Leu-Met-Val-Gly-Gly-Val-Val-Ile- Ala-OH]) was dissolved in DMSO in order that it induces aggregation at the concentration of 25 microM for 1 week. The test group added with aggregated betaamyloid and test samples inhibiting the inhibition of aggregation and a control group added with only A were reacted together at room temperature for 1 hour on fluorescent black plate. ThT (Thioflavin T) was diluted with 50 mM glycine buffer solution to be […] and the diluted solutions were added to each well by 150 μl/well. The fluorescence intensity of each group was determined by microplate reader (SAFIRE, TECAN) at 450 nm excitation wavelength/480 nm emission wavelength after shaking together for 10 seconds.

The text below walks through data of US8263649B2, “Benzofuran type derivatives, a composition comprising the same for treating or preventing cognitive dysfunction and the use thereof” (Medifron DBT Co., Ltd., priority 2006, dated 2012).

Molecules are shown by their SMILES.

T2 sequence (P05067 672-713): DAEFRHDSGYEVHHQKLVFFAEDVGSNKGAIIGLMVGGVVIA
T1 sequence (P05067 672-713): as above

As to `COCCCc1ccc2oc(-c3ccc(OC)c(OC)c3)cc2c1` [Compound 18b, 2-(3,4-dimethoxy-phenyl)-5-(3-methoxy-propyl)-benzofuran], in assay [1] (mice, oral, three days, FIG. 4), the “recovering effect on memory learning damaged by beta-amyloid (passive avoidance, step-through latency)” value is given as “potent recovering effect”. Also, in assay [1] (treatment group with more than 100 mg/kg, FIG. 5), the “effect on the memory learning capacity (passive avoidance), best dose group” value is reported as “most excellent effect”. In addition, the “inhibition effect on beta-amyloid toxicity” value in assay [2] is on record as “potent inhibition effect”. Besides, in assay [3], the “inhibitory effect on the aggregation of beta amyloid” value is “most potent inhibitory effect”. Besides, the “numbers, size, and area of plaque in brain” value in assay [4] is on record as “significantly reduced”. Further, the “solubilizing activity of beta-amyloid” value in assay [5] is given as “potent solubilizing activity”.
